Measured values reported in patent US20130323171A1, “RADIOLABELED BBN ANALOGS FOR PET IMAGING OF GASTRIN-RELEASING PEPTIDE RECEPTORS” (priority 2012, published 2013).
Square brackets hold non-standard residues; d marks the D form. Peptide text beside a SMILES is read from it. Sta = CC(C)C[C@H](N)[C@@H](O)CC(=O)O; 4Abz = Nc1ccc(C(=O)O)cc1

Assays:
GRPR = biological target: T1, GRPR (Homo sapiens, UniProt P30550); experiment: Cell-binding assay: inhibition of ^125I-[Tyr4]BBN binding on PC3 cells; settings: 0.06 nM radioligand, 37° C., 1 h, n=4, mean±SD
T1 construct: endogenous in cells; host or cells: PC3 cells
Procedure: The cell-binding assay was performed similarly as previously reported (18, 35). Briefly, the PC3 cells (3×10^4) were incubated with 0.06 nM ^125I-[Tyr4]BBN and varying concentrations of peptides in the binding buffer (RPMI 1640+2 mg/mL BSA+5.2 mg/mL HEPES) at 37° C. for 1 h. The cell-bound, residual radioactivity after washing was determined by gamma counting. […] The experiments were performed in quadruplicate.
All of these peptides inhibited the GRPR-binding of ^125I-[Tyr4]BBN on the PC3 cells in a concentration-dependent manner.

[1] = Mouse serum stability of the PET probes; type: in vitro ADME; settings: 37° C., 1 h
Procedure: The in vitro stability of the PET probes was evaluated by incubation with mouse serum (1 mL) at 37° C. for 1 h. The solutions were filtered using a NanoSep 10 K centrifuge (Pall Corp.) to isolate low-molecular-weight radiocomplexes. The samples were analyzed by the radio-HPLC, and the percentages of intact PET probe were determined by quantifying the peaks corresponding with the intact probe and degradation products.
More than 95% of the probes remained intact after 1 h of incubation in mouse serum at 37° C.

T1 sequence (P30550 whole entry): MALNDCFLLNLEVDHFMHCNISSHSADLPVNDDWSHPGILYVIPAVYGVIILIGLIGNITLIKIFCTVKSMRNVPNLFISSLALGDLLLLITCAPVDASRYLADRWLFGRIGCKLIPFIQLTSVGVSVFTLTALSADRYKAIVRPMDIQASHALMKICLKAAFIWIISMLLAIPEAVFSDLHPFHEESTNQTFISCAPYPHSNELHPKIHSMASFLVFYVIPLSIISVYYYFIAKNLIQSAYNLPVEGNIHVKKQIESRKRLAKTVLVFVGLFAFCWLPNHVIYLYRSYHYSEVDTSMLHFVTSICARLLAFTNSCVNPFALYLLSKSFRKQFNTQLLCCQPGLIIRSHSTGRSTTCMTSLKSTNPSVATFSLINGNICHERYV

Compound | IC50 (GRPR) [nM] | stability in mouse serum [1]
CSCC[C@H](NC(=O)[C@H](CC(C)C)NC(=O)[C@H](Cc1c[nH]cn1)NC(=O)CNC(=O)[C@@H](NC(=O)[C@H](C)NC(=O)[C@H](Cc1c[nH]c2ccccc12)NC(=O)[C@H](CCC(N)=O)NC(=O)c1ccc(NC(=O)CN)cc1)C(C)C)C(N)=O [AMBA] | 0.17 ± 0.07 | –
CSCC[C@H](NC(=O)[C@H](CC(C)C)NC(=O)[C@H](Cc1c[nH]cn1)NC(=O)CNC(=O)[C@@H](NC(=O)[C@H](C)NC(=O)[C@H](Cc1c[nH]c2ccccc12)NC(=O)[C@H](CCC(N)=O)NC(=O)c1ccc(NC(=O)CNC(=O)CCC(C(=O)O)N2CCN(CC(=O)O)CCN(CC(=O)O)CC2)cc1)C(C)C)C(N)=O (single isomer, unassigned) [^64Cu-NODAGA-AMBA, metal not drawn] | – | exhibited degradation
CC(C)C[C@H](NC(=O)C[C@H](O)[C@H](CC(C)C)NC(=O)[C@H](Cc1c[nH]cn1)NC(=O)CNC(=O)[C@@H](NC(=O)[C@H](C)NC(=O)[C@H](Cc1c[nH]c2ccccc12)NC(=O)[C@H](CCC(N)=O)NC(=O)[C@@H](Cc1ccccc1)NC(=O)c1ccc(NC(=O)CN)cc1)C(C)C)C(N)=O [RM1, G-4-aminobenzoyl-D-Phe-Gln-Trp-Ala-Val-Gly-His-Sta-Leu-NH2] (H-G[4Abz][dF]QWAVGH[Sta]L-NH2; N-terminus assumed) | 0.25 ± 0.04 | –
